Source: paper PMC3025356, “Mechanism of the Ca^2+-Dependent Interaction between S100A4 and Tail Fragments of Nonmuscle Myosin Heavy Chain IIA” (Journal of Molecular Biology, 2011)
Where two headings read alike, the source gives them in different places.

Key:
[1] = Stopped-flow Quin-2 fluorescence, Ca^2+ dissociation from / binding to S100A4 constructs (no target); settings: single exponential fit, no target
From the text: In order to increase the signal-to-noise ratio of the Ca^2+ dissociation transients, we used Quin-2 as combined fluorescent indicator and high-affinity chelator.[19,20] These measurements confirmed that Ca^2+ dissociated from wild-type protein with a rate constant of 16 s^− 1 (Fig. 3a; cf. 20 s^− 1 for the tyrosine signal). Given the poor signal-to-noise ratio of the tyrosine signal, the difference is barely significant but may reflect the fact that the Quin-2 signal represents at least a two-step sequential reaction (Ca^2+ dissociation from S100AS4, followed by rapid binding to Quin-2).
Fig. 3 (a) Dissociation of Ca^2+ from wild-type S100A4 (black), E33Q mutant (blue), and D63N mutant (red), as monitored by Quin-2 fluorescence. […] The records for the mutants were vertically offset for clarity. (b) Ca^2+ binding to S100A4 as determined from the amplitude of the resolved transient (k ≈ 20 s^− 1) when 6.5 μM S100A4 was preincubated with various added [Ca^2+] and then mixed with 100 μM Quin-2. The amplitude was converted into a bound concentration from an independent calibration using the same Quin-2 solution and known free [Ca^2+]. […] While either model could account for the data, the measured stoichiometry from ITC (Table 1) favors the cooperative model.
(§1) Stopped-flow measurements were carried out using an SX18-MV apparatus (Applied Photophysics Ltd., Leatherhead, UK) with a dead time of 1.5 ms.[40] Records were generally captured on a logarithmic time base. Absorption (turbidity) measurements were usually recorded using a 10-mm pathlength, while fluorescence was recorded with a 2-mm pathlength for excitation and emission. The stated concentrations of components refer to the reaction chamber after mixing, unless otherwise indicated. Tyrosine fluorescence was excited at 280 nm, and the emission was collected through a UG11 bandpass filter plus a 305-nm longpass filter.[18] Fluorescein fluorescence was excited at 480 nm, and the emission was detected through a 515-nm longpass filter. Quin-2 fluorescence was measured by excitation at 336 nm, and emission was collected with a 455-nm longpass filter. For simultaneous recording of light scatter, a second channel was monitored through a UG11 filter. Rate constants were obtained by fitting to single-exponential or double-exponential functions using Kaleidagraph (Synergy Software) or Applied Photophysics Pro-Data software. Modeling of kinetic schemes was performed using Berkeley Madonna software.

[2] = Isothermal titration calorimetry of Ca^2+ binding to S100A4 constructs
Procedure: Fig. 2 ITC records for Ca^2+ binding to S100A4 constructs: (a) 75 μM wild type at 30 °C; (b) 75 μM wild type at 10 °C; (c) 75 μM E33Q construct at 30 °C; (d) 300 μM D63N construct at 30 °C. For mutant constructs data at 10 °C, see Fig. S1. All preparations were dialysed against the same buffer of 20 mM NaCl, 10 mM Hepes, and 2 mM DTT (pH 7.5).
ITC data were collected using a VP-ITC microcalorimeter (MicroCal Ltd., Northampton, MA) and analysed by fitting to a single-site binding equation or a two-site binding equation using MicroCal Origin software.

[3] = Stopped-flow tyrosine fluorescence, Ca^2+ dissociation from S100A4 constructs; type: binding
Procedure: as §1
Dissociation of Ca2+ from wild type S100A4 (black), Y19F mutant (blue) and Y75F mutant (red) monitored by tyrosine fluorescence. 13 M of each S100A4 construct plus 100 µM Ca2+ was mixed with 200 µM EGTA (reaction chamber concentrations) and the tyrosine fluorescence monitored. The buffer was 20 mM NaCl, 10 mM HEPES, 2 mM DTT at pH 7.5 and 20 °C. Fits to a single exponential function yielded rate constants of 20 s-1, 113 s-1 and 45 s-1 for wild-type, Y19F mutant and Y75F mutant respectively. (d) Dissociation of Ca2+ from wild type S100A4 (black), E33Q mutant (blue) and D63N mutant (red) monitored by tyrosine fluorescence. 13 M of each S100A4 construct plus 15 M Ca2+ was mixed with 200 M EGTA (reaction chamber concentrations) and the tyrosine fluorescence monitored. Fits to a single exponential function yielded rate constants of 22 s-1 and 49 s-1 for wild-type and E33Q construct respectively, while that […]
The records for the mutants were vertically offset for clarity in both […]

Δ10-S100A4 = molecular target: T1, Δ10-S100A4 (Homo sapiens, UniProt P26447); experiment: NMR ^1H,^15N HSQC titration of Δ10-S100A4 with myosin peptides; type: binding
T1 construct: truncated Δ10-S100A4, which lacks 10 C-terminal residues; made in house; host or cells: Escherichia coli (M9 minimal medium, 15N labelling)
T1 sequence (P26447 1-91 limits assumed, stated change not applied): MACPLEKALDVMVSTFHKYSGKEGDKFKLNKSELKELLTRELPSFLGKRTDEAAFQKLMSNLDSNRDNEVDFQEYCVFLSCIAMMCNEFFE

[4] = 10 °C and 30 °C, read-out: Kd for Ca^2+
[5] = 10 °C, 75 μM protein (D63N 300 μM), 20 mM NaCl, 10 mM Hepes, 2 mM DTT, pH 7.5
[6] = 30 °C, 75 μM protein (D63N 300 μM), 20 mM NaCl, 10 mM Hepes, 2 mM DTT, pH 7.5
[7] = first site, Ca^2+ binding, 30 °C, 75 μM protein (D63N 300 μM), 20 mM NaCl, 10 mM Hepes, 2 mM DTT, pH 7.5, read-out: K1d
[8] = first site, 10 °C, wild type and E33Q cooperative, read-out: K1d
[9] = 13 μM S100A4 + 100 μM Ca^2+ mixed with 200 μM EGTA, 20 mM NaCl, 10 mM Hepes, 2 mM DTT, pH 7.5, 20 °C

D63N: S100A4 mutant compromised in the EF2 Ca^2+ binding loop
Ca^2+ dissociation rate constant (Quin-2) [1]: 500 s^− 1
Kd [2, 4]: 65 to 70 µM
n1 (Ca^2+ per monomer) [2, 5]: 0.44 ± 0.01 Ca^2+ per monomer
n1 (Ca^2+ per monomer) [2, 6]: 0.54 ± 0.01 Ca^2+ per monomer
reduction in Ca^2+ affinity ([2]; compromised EF2 site, as suggested by ITC): 30 -fold
Kd [2, 7]: 68 ± 1 µM
Kd [2, 8]: 65 ± 3 µM

E33Q: S100A4 mutant compromised in the EF1 Ca^2+ binding loop
Ca^2+ dissociation rate constant (Quin-2) [1]: 35 s^− 1
Ca^2+ dissociation rate constant (tyrosine) ([3]; 13 μM S100A4 + 15 μM Ca^2+ mixed with 200 μM EGTA): 49 s^− 1
Kd [2, 4]: 1 to 10 µM
n1 (Ca^2+ per monomer) [2, 5]: 0.96 ± 0.09 Ca^2+ per monomer
n1 (Ca^2+ per monomer) [2, 6]: 0.33 ± 0.03 Ca^2+ per monomer
Kd [2, 7]: 10.9 ± 1.9 µM
Kd [2, 8]: ~1 µM

M15^C: myosin peptide G1924-G1938, acetylated N-terminus, amidated C-terminus (Ac-GDLPFVVPRRMARKG-NH2)
NMR exchange regime (Δ10-S100A4; 0.2 mM Δ10-S100A4, Ca^2+, 35 °C): fast exchange
affinity by NMR (Δ10-S100A4; 0.2 mM Δ10-S100A4, up to 9-fold molar excess of peptide): too low to be measured by NMR

Y19F: S100A4 mutant, tyrosine 19 to phenylalanine
Ca^2+ dissociation rate constant (tyrosine) [3, 9]: 113 s^− 1

Y75F: S100A4 mutant, tyrosine 75 to phenylalanine
Ca^2+ dissociation rate constant (tyrosine) [3, 9]: 45 s^− 1

Δ10-S100A4: truncated S100A4, lacks 10 C-terminal residues
interaction in the absence of Ca^2+ (Δ10-S100A4; absence of Ca^2+): No interaction was observed
